The values below come from paper doi:10.1101/2024.09.05.611129v1 (biorxiv, 2024).

Each structure is given as a SMILES string.

As usually defined, the Km is the concentration of substrate that gives half-maximal velocity.

The assay addresses MtKatG (Mycobacterium tuberculosis, UniProt P9WIE5).

Chain of MtKatG (P9WIE5 whole entry): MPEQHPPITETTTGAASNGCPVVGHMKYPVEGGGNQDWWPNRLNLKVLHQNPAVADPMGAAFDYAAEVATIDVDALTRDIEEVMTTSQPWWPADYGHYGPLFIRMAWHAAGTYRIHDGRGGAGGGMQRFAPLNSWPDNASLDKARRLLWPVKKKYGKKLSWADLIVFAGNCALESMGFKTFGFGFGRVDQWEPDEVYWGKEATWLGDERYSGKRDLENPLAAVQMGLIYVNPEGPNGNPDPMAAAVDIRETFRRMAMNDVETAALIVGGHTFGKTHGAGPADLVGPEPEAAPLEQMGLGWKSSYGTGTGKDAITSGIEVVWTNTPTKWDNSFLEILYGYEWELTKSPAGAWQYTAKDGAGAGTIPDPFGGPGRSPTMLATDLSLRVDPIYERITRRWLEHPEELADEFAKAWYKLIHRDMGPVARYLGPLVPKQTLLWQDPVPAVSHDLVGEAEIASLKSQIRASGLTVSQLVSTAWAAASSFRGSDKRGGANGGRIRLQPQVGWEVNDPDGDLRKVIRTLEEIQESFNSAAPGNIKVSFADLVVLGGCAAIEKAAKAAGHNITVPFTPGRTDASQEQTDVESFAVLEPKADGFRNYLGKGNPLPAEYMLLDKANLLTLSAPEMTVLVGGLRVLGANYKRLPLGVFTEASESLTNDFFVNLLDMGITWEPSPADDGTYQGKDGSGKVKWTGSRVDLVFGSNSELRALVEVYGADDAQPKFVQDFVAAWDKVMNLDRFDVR

Turning to `CC(C)(C)OO` [t-BuOOH], the Km was 19 ± 6 mM.
